Results reported in patent publication US6781015B2, “Aminobenzophenones and photopolymerizable compositions including the same” (Albemarle Corporation, priority 1997, dated 2004).
“And” between values parts separate entries of the source, which are not always exact repeats. Identical values can stand only once.

How the values were obtained:
[1] = based on cancer studies in rats and mice; cited from earlier work
[2] = system: Salmonella typhimurium tester strain TA98; test: Salmonella/Mammalian-Microsome Reverse Mutation Screening Assay (Ames Test); type: cell-based; parameters: key to Background lawn: 1 = normal; 2 = slightly reduced; 3 = moderately reduced; 4 = extremely reduced; 5 = absent; 6 = obscured by precipitate; sp = slight precipitate; mp = moderate precipitate (requires hand count); hp = heavy precipitate (requires hand count); conditions: for Individual plate counts, revertants per plate: plates 1-3
Experimental: Mutagenicity can be measured by a variety of assays. The most commonly used method is the Salmonella/Mammalian-Microsome Reverse Mutation Screening Assay (Ames Test), which commonly uses four or five strains of Salmonella bacteria to detect different types of mutations.
TMMK, TEMK and MEAB were evaluated for the ability to induce reverse mutations at the histidine locus in the genome of a specific Salmonella typhimurium tester strain in the presence of an exogenous metabolic activation system of mammalian microsomal enzymes derived from Aroclor™-induced rat liver (S9). The tester strain used in the mutagenicity assay was Salmonella typhimurium tester strain TA98 with added activation. The assay was conducted using eight doses of the test article, along with the appropriate vehicle and positive controls in the presence of S9 mix (S9 homogenate was purchased from Molecular Toxicology, Inc., Annapolis, Md. 21401, Batch 0646, 43.4 mg of protein per ml). Positive controls were also plated in the absence of S9 mix. All doses of test article, vehicle, and positive controls were plated in triplicate.
(§1) The test article TMMK was stored at room temperature. Acetone (CAS# 67-64-1, Fisher Scientific Co., Lot 961140) was used as the vehicle. At 20 mg per ml, which was the most concentrated stock solution which could be prepared, the test article formed a clear, light yellow solution. The test article remained a solution in all succeeding dilutions prepared for the mutagenicity assay. The maximum aliquot of acetone which can be used in the test system is 200 μl. Thus, the maximum concentration which could be tested was 4,000 μg per plate. The test article and vehicle controls were plated using a 200 μl plating aliquot. Positive control articles were plated using 50 μl plating aliquot.
(§2) The test article TEMK was stored at room temperature. Acetone (CAS# 67-64-1, Fisher Scientific Co., Lot 961140) was used as the vehicle. At 100 mg per ml, which was the most concentrated stock solution prepared, the test article formed a clear, yellow solution. The test article remained a solution in all succeeding dilutions prepared for the mutagenicity assay. The test article, vehicle controls and positive control articles were plated using a 50 μl plating aliquot.
as §2, with “MEAB” for “TEMK”, “(CAS#67-64-1,” for “(CAS# 67-64-1,”, “25” for “100”, “clear, light” for “clear,”, “article and” for “article,”, “were plated using a 200 μl plating aliquot. Positive” for “and positive”
The data are presented as individual plate counts along with a mean and standard deviation.

[3] = system: Salmonella typhimurium tester strain TA98; conditions: strain TA98 with added mammalian metabolic activation, adequate concentrations of test material; cited from earlier work
[4] = Most concentrated stock solution in acetone; type: physicochemical; conditions: clear, light yellow solution
Experimental: as §1

[5] = TA98, rat liver S9, 3.33 μg/plate
[6] = TA98, rat liver S9, 10.0 μg/plate
[7] = TA98, rat liver S9, 33.3 μg/plate
[8] = TA98, rat liver S9, 100 μg/plate
[9] = TA98, rat liver S9, 333 μg/plate
[10] = TA98, rat liver S9, 1000 μg/plate
[11] = TA98, rat liver S9, 3330 μg/plate
[12] = TA98, rat liver S9, 4000 μg/plate
[13] = tester strain TA98 in the presence of S9 mix

SMILES: CN(C)c1ccc(C(=O)c2ccc(N(C)C)cc2)cc1 [TMMK, 4,4′-bis(dimethylamino)benzophenone]
- National Toxicology Program carcinogen listing [1]: reasonably anticipated to be a carcinogen
- Mean revertants per plate [2, 5]: 22 revertants per plate
- Individual plate counts, revertants per plate [2, 5]: 14 revertants per plate and 29 revertants per plate and 24 revertants per plate
- Mean revertants per plate [2, 6]: 16 revertants per plate
- Individual plate counts, revertants per plate [2, 6]: 9 revertants per plate and 19 revertants per plate (2×)
- Mean revertants per plate [2, 7]: 31 revertants per plate
- Individual plate counts, revertants per plate [2, 7]: 21 revertants per plate and 35 revertants per plate and 37 revertants per plate
- Mean revertants per plate [2, 8]: 17 revertants per plate
- Individual plate counts, revertants per plate [2, 8]: 16 revertants per plate and 12 revertants per plate and 22 revertants per plate
- Mean revertants per plate [2, 9]: 18 revertants per plate
- Individual plate counts, revertants per plate [2, 9]: 18 revertants per plate and 23 revertants per plate and 12 revertants per plate
- Mean revertants per plate [2, 10]: 31 revertants per plate
- Individual plate counts, revertants per plate [2, 10]: 35 revertants per plate and 26 revertants per plate and 33 revertants per plate
- Mean revertants per plate [2, 11]: 79 revertants per plate
- Individual plate counts, revertants per plate [2, 11]: 78 revertants per plate (2×) and 82 revertants per plate
- Mean revertants per plate [2, 12]: 81 revertants per plate
- Individual plate counts, revertants per plate [2, 12]: 80 revertants per plate and 70 revertants per plate and 93 revertants per plate
- Background lawn ([2]; Table 1, TA98, rat liver S9, 3.33 μg/plate): 1
- Background lawn ([2]; Table 1, TA98, rat liver S9, 10.0 μg/plate): 1
- Background lawn ([2]; Table 1, TA98, rat liver S9, 33.3 μg/plate): 1
- Background lawn ([2]; Table 1, TA98, rat liver S9, 100 μg/plate): 1 sp
- Background lawn ([2]; Table 1, TA98, rat liver S9, 333 μg/plate): 1 mp
- Background lawn ([2]; Table 1, TA98, rat liver S9, 1000 μg/plate): 1 mp
- Background lawn ([2]; Table 1, TA98, rat liver S9, 3330 μg/plate): 6 mp
- Background lawn ([2]; Table 1, TA98, rat liver S9, 4000 μg/plate): 6 mp
- Background lawn ([2]; Table 2 summary, TA98, rat liver S9, 3.33 μg/plate): 1
- Background lawn ([2]; Table 2 summary, TA98, rat liver S9, 10.0 μg/plate): 1
- Background lawn ([2]; Table 2 summary, TA98, rat liver S9, 33.3 μg/plate): 1
- Background lawn ([2]; Table 2 summary, TA98, rat liver S9, 100 μg/plate): 1 sp
- Background lawn ([2]; Table 2 summary, TA98, rat liver S9, 333 μg/plate): 1 mp
- Background lawn ([2]; Table 2 summary, TA98, rat liver S9, 1000 μg/plate): 1 mp
- Background lawn ([2]; Table 2 summary, TA98, rat liver S9, 3330 μg/plate): 6 mp
- Background lawn ([2]; Table 2 summary, TA98, rat liver S9, 4000 μg/plate): 6 mp
- Ames Test outcome (mutagenicity) [2, 13]: mutagenic
- Increase in the number of revertants per plate [2, 13]: 3.9 fold
- Ames Test outcome in the literature [3]: consistently found to have mutations
- Most concentrated stock solution which could be prepared [4]: 20 mg per ml
